# Legend:
# spring barley [1] = assay: Growth height of spring barley, soil treatment, Example 10; assay type: in vivo, spring barley ("Union" variety)
# Method: (§1) Spring wheat ("Opal" variety) and spring barley ("Union" variety) were grown under greenhouse conditions in plastic dishes 11.5 cm in diameter, in a peat substrate provided with sufficient nutrients. For the soil (preemergence) treatment, the active ingredients were poured, at two application rates, as aqueous formulations onto the surface of the substrate after sowing.
# (§2) The plant height was measured at the end of the experiment. The figures obtained show the shortening effect of the active ingredients under investigation. The prior art compound β-chloroethylphosphonic acid (Ethephon, German Printed Application DAS No. 1,667,968) was used for comparison purposes.
# spring wheat [2] = assay: Growth height of spring wheat, soil treatment, Example 10; assay type: in vivo, spring wheat ("Opal" variety)
# Method: as §1, §2
# spring barley [3] = assay: Growth height of spring barley, leaf treatment, Example 10; assay type: in vivo, spring barley ("Union" variety)
# Method: as §1
# (§3) Leaf treatment was effected by spraying the plants at a growth height of 10 cm with aqueous formulations of the active ingredients at two application rates.
# as §2
# spring wheat [4] = assay: Growth height of spring wheat, leaf treatment, Example 10; assay type: in vivo, spring wheat ("Opal" variety)
# Method: as §1, §3, §2
# grass = assay: Growth height of, and amount of mowings in, grass, Example 12; assay type: in vivo; conditions: for First mowing, growth height, relative / First mowing, mowings, relative / Second mowing, growth height, relative / Second mowing, mowings, relative: control = 100
# From the text: In an experiment in large vessels, lawn seed of the following standard composition was sown in a loamy soil: Agrostis tenuis (10%), Cynosurus cristatus (10%), Festuca rubra (15%), Lolium perenne (35%) and Poa pratensis (30%). 1.5 g of N as ammonium nitrate and 1 g of P2 O5 as secondary potassium phosphate were applied as fertilizer. After the grass had been cut twice, the active ingredients were sprayed in conventional manner at various application rates onto the grass which was 4 cm high. The growth height and the mowings were determined 19 days after the treatment. Compared with the control, the treated plants reacted with most considerable height reductions and a proportionate decrease in mowings.
structure (smiles),measurement,setting,value
Clc1ccc(C2=NOC3C4CC(C5N=NC45)C23)cc1 (centres unmarked) [drawing 409],Plant height,spring barley [1]; 3 kg/ha,26.0 cm
same,"Plant height, % of untreated control",spring barley [1]; 3 kg/ha,75.8%
same,Plant height,spring barley [1]; 12 kg/ha,24.0 cm
same,"Plant height, % of untreated control",spring barley [1]; 12 kg/ha,70.0%
Clc1ccc(C2N=NC3C4CC(C5N=NC45)C23)cc1 (centres unmarked) [drawing 392],Plant height,spring wheat [2]; 3 kg/ha,17.0 cm
same,"Plant height, % of untreated control",spring wheat [2]; 3 kg/ha,53.1%
same,Plant height,spring wheat [2]; 12 kg/ha,14.0 cm
same,"Plant height, % of untreated control",spring wheat [2]; 12 kg/ha,43.8%
Brc1ccc(C2=NOC3C4CC(C5N=NC45)C23)cc1 (centres unmarked) [drawing 393],Plant height,spring wheat [2]; 3 kg/ha,26.5 cm
same,"Plant height, % of untreated control",spring wheat [2]; 3 kg/ha,82.8%
same,Plant height,spring wheat [2]; 12 kg/ha,25.5 cm
same,"Plant height, % of untreated control",spring wheat [2]; 12 kg/ha,79.7%
Clc1ccc(C2=NOC3C4CC(C5N=NC45)C23)cc1 (centres unmarked) [drawing 397],Plant height,spring wheat [2]; 3 kg/ha,16.0 cm
same,"Plant height, % of untreated control",spring wheat [2]; 3 kg/ha,50.0%
same,Plant height,spring wheat [2]; 12 kg/ha,15.0 cm
same,"Plant height, % of untreated control",spring wheat [2]; 12 kg/ha,46.9%
O=[N+]([O-])c1ccc(C2=NOC3C4CC(C5N=NC45)C23)cc1 (centres unmarked) [drawing 412],Plant height,spring barley [3]; 1.5 kg/ha,25.0 cm
same,"Plant height, % of untreated control",spring barley [3]; 1.5 kg/ha,89.3%
same,Plant height,spring barley [3]; 6.0 kg/ha,24.5 cm
same,"Plant height, % of untreated control",spring barley [3]; 6.0 kg/ha,87.5%
Brc1ccc(C2=NOC3C4CC(C5N=NC45)C23)cc1 (centres unmarked) [drawing 405],Plant height,spring barley [1]; 3 kg/ha,28.0 cm
same,"Plant height, % of untreated control",spring barley [1]; 3 kg/ha,81.6%
same,Plant height,spring barley [1]; 12 kg/ha,26.0 cm
same,"Plant height, % of untreated control",spring barley [1]; 12 kg/ha,75.8%
"O=P(O)(O)CCCl [Ethephon, β-chloroethylphosphonic acid, reference compound]",Plant height,spring wheat [2]; 3 kg/ha,29.0 cm
same,"Plant height, % of untreated control",spring wheat [2]; 3 kg/ha,90.6%
same,Plant height,spring wheat [2]; 12 kg/ha,25.0 cm
same,"Plant height, % of untreated control",spring wheat [2]; 12 kg/ha,78.1%
same,Plant height,spring wheat [4]; 1.5 kg/ha,30.0 cm
same,"Plant height, % of untreated control",spring wheat [4]; 1.5 kg/ha,91.5%
same,Plant height,spring wheat [4]; 6.0 kg/ha,25.0 cm
same,"Plant height, % of untreated control",spring wheat [4]; 6.0 kg/ha,76.2%
same,Plant height,spring barley [1]; 3 kg/ha,32.0 cm
same,"Plant height, % of untreated control",spring barley [1]; 3 kg/ha,93.3%
same,Plant height,spring barley [1]; 12 kg/ha,27.5 cm
same,"Plant height, % of untreated control",spring barley [1]; 12 kg/ha,80.2%
same,Plant height,spring barley [3]; 1.5 kg/ha,27.0 cm
same,"Plant height, % of untreated control",spring barley [3]; 1.5 kg/ha,96.4%
same,Plant height,spring barley [3]; 6.0 kg/ha,24.5 cm
same,"Plant height, % of untreated control",spring barley [3]; 6.0 kg/ha,87.5%
Clc1ccc(C2=NOC3C4CC(C5N=NC45)C23)cc1 (centres unmarked) [drawing 426],"First mowing, growth height",grass; 3.0 kg/ha,21.0 cm
same,"First mowing, mowings",grass; 3.0 kg/ha,117.7 g
same,"Second mowing, growth height",grass; 3.0 kg/ha,18.5 cm
same,"Second mowing, mowings",grass; 3.0 kg/ha,75.3 g
same,"First mowing, growth height, relative",grass; 3.0 kg/ha,96.3
same,"First mowing, mowings, relative",grass; 3.0 kg/ha,87.7
same,"Second mowing, growth height, relative",grass; 3.0 kg/ha,92.5
same,"Second mowing, mowings, relative",grass; 3.0 kg/ha,83.1
same,"First mowing, growth height",grass; 6.0 kg/ha,18.5 cm
same,"First mowing, mowings",grass; 6.0 kg/ha,114.0 g
same,"Second mowing, growth height",grass; 6.0 kg/ha,17.0 cm
same,"Second mowing, mowings",grass; 6.0 kg/ha,72.1 g
same,"First mowing, growth height, relative",grass; 6.0 kg/ha,84.9
same,"First mowing, mowings, relative",grass; 6.0 kg/ha,84.9
same,"Second mowing, growth height, relative",grass; 6.0 kg/ha,85.0
same,"Second mowing, mowings, relative",grass; 6.0 kg/ha,79.6
Clc1ccc(C2=NOC3C4CC(C5N=NC45)C23)cc1 (centres unmarked) [drawing 414],Plant height,spring barley [3]; 1.5 kg/ha,26.0 cm
same,"Plant height, % of untreated control",spring barley [3]; 1.5 kg/ha,92.9%
same,Plant height,spring barley [3]; 6.0 kg/ha,24.5 cm
same,"Plant height, % of untreated control",spring barley [3]; 6.0 kg/ha,87.5%
Cc1ccc(C2=NOC3C4CC(C5N=NC45)C23)cc1 (centres unmarked) [drawing 407],Plant height,spring barley [1]; 3 kg/ha,25.0 cm
same,"Plant height, % of untreated control",spring barley [1]; 3 kg/ha,72.9%
same,Plant height,spring barley [1]; 12 kg/ha,21.0 cm
same,"Plant height, % of untreated control",spring barley [1]; 12 kg/ha,61.2%
c1ccc(C2=NOC3C4CC(C5N=NC45)C23)cc1 (centres unmarked) [drawing 424],"First mowing, growth height",grass; 3.0 kg/ha,20.0 cm
same,"First mowing, mowings",grass; 3.0 kg/ha,116.3 g
same,"Second mowing, growth height",grass; 3.0 kg/ha,19.0 cm
same,"Second mowing, mowings",grass; 3.0 kg/ha,94.8 g
same,"First mowing, growth height, relative",grass; 3.0 kg/ha,91.7
same,"First mowing, mowings, relative",grass; 3.0 kg/ha,86.7
same,"Second mowing, growth height, relative",grass; 3.0 kg/ha,95.0
same,"Second mowing, mowings, relative",grass; 3.0 kg/ha,104.6
same,"First mowing, growth height",grass; 6.0 kg/ha,17.0 cm
same,"First mowing, mowings",grass; 6.0 kg/ha,101.1 g
same,"Second mowing, growth height",grass; 6.0 kg/ha,16.5 cm
same,"Second mowing, mowings",grass; 6.0 kg/ha,85.2 g
same,"First mowing, growth height, relative",grass; 6.0 kg/ha,78.0
same,"First mowing, mowings, relative",grass; 6.0 kg/ha,75.3
same,"Second mowing, growth height, relative",grass; 6.0 kg/ha,82.5
same,"Second mowing, mowings, relative",grass; 6.0 kg/ha,94.0
Clc1ccc(C2N=NC3C4CC(C5N=NC45)C23)cc1 (centres unmarked) [drawing 398],Plant height,spring wheat [4]; 1.5 kg/ha,23.5 cm
same,"Plant height, % of untreated control",spring wheat [4]; 1.5 kg/ha,71.6%
same,Plant height,spring wheat [4]; 6.0 kg/ha,22.0 cm
same,"Plant height, % of untreated control",spring wheat [4]; 6.0 kg/ha,67.1%
Brc1ccc(C2=NOC3C4CC(C5N=NC45)C23)cc1 (centres unmarked) [drawing 411],Plant height,spring barley [3]; 1.5 kg/ha,25.5 cm
same,"Plant height, % of untreated control",spring barley [3]; 1.5 kg/ha,91.1%
same,Plant height,spring barley [3]; 6.0 kg/ha,25.0 cm
same,"Plant height, % of untreated control",spring barley [3]; 6.0 kg/ha,89.3%
COc1ccc(C2=NOC3C4CC(C5N=NC45)C23)cc1 (centres unmarked) [drawing 408],Plant height,spring barley [1]; 3 kg/ha,30.0 cm
same,"Plant height, % of untreated control",spring barley [1]; 3 kg/ha,87.5%
same,Plant height,spring barley [1]; 12 kg/ha,29.0 cm
same,"Plant height, % of untreated control",spring barley [1]; 12 kg/ha,84.5%

# Source: patent publication US4259235A, “Tricyclic nitrogenous compounds having string plant growth regulating properties” (BASF Aktiengesellschaft, priority 1977, dated 1981)
